# According to ChEMBL document CHEMBL5370582, “Heterolactone and Heterolactams A-M, Verticillane Diterpenoids with Anti-Inflammatory and Hepatoprotective Activities from the Soft Coral Heteroxenia ghardaqensis” (J Nat Prod, 2023):
# Calls of active or inactive are those of the source. No cut-off for these calls is given here.
# Species: Danio rerio
# Assay: Anti-inflammatory activity against CuSO4-induced inflammatory response in transgenic Zebrafish larvae assessed as reduction in number of macrophages at 20 uM pretreated for 2 hrs followed by CuSO4-stimulation and measured after 1 hr by fluorescence microscopy
# Assay type: functional, organism-based
# Details: time 3.0 hrs
row,SMILES,Activity
1,C[C@H]1CC[C@@H]2CCC3=C([C@@H](C[C@@H](C)CC(=O)C1)N(CCO)C3=O)C2(C)C,Active
2,C[C@H]1CC[C@@H]2CCC3=C([C@@H](C[C@@H](C)CC(=O)C1)N(CCc1ccccc1)C3=O)C2(C)C,Active
3,COc1ccc2c(c1)c(CC(=O)O)c(C)n2C(=O)c1ccc(Cl)cc1,Active
4,C[C@H]1CC[C@@H]2CCC3=C(C2(C)C)[C@@](O)(C[C@@H](C)CC(=O)C1)N(CCc1ccccc1)C3=O,Active

# Species: Danio rerio
# Assay: Hepatoprotective activity against isoniazid/alcohol-induced liver injury in transgenic Zebrafish larvae at 50 uM incubated for 72 hrs by fluorescence microscopy
# Assay type: functional, organism-based
# Details: not given
row,SMILES,Activity
1,C[C@H]1CC[C@@H]2CCC3=C(C2(C)C)[C@@](O)(C[C@@H](C)CC(=O)C1)NC3=O,Active
2,C[C@H]1CC[C@@H]2CCC3=C([C@@H](C[C@@H](C)CC(=O)C1)N(CCO)C3=O)C2(C)C,Active
3,C[S+](CC[C@H](N)C(=O)[O-])C[C@H]1O[C@@H](n2cnc3c(N)ncnc32)[C@H](O)[C@@H]1O (stereo partly drawn),Active
4,CC(C)CCN1C(=O)[C@@]2(C)CC[C@H]3CC[C@H](C)CC(=O)C[C@H](C)/C=C\1[C@]2(O)C3(C)C,Active
